The source of these data is patent US11149031B2, “Substituted N-(3-fluoropropyl)-pyrrolidine compounds, processes for their preparation and therapeutic uses thereof” (SANOFI, priority 2016, dated 2021).

Read-outs that look alike come from different tables or passages of the source.

Experiment [1] deals with His6-ERα298-554 D538G mutant (ERα ligand-binding domain) (Homo sapiens (Human), UniProt P03372, D538G). The experiment can be described thus: Test A: biochemical antagonist activity, LanthaScreen TR-FRET ERα coactivator assay, D538G mutant. The note with it: asterisk (*): protocol using 10 nM estradiol; read-out: Antagonism D538G IC50. The essentials: (§1)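 Compounds were added to receptor LBD (0.5 nM), terbium-labelled His6 antibody (0.5 nM), PGC1a coactivator peptide (250 nM) and estradiol at 3 nM or 10 nM. After incubating overnight at room temperature, the 520:495 nm ratio gave IC50 values by four-parameter logistic regression.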
For orientation: In TR-FRET formats the signal depends on donor and acceptor labels being close together.

For experiment [2], the target named is His6-ERα298-554 WT (ERα ligand-binding domain) (Homo sapiens (Human), UniProt P03372). The experiment can be described thus: Test A: biochemical antagonist activity, LanthaScreen TR-FRET ERα coactivator assay, WT. As to conditions: asterisk (*): protocol using 10 nM estradiol; read-out: Antagonism WT IC50. The essentials:
as §1

A further experiment addresses ERα in MCF7 cells (Homo sapiens (Human), UniProt P03372). The experiment can be described thus: Test C: estrogen receptor degradation activity, ERα in cell western assay in MCF7 cells. The experiment is classed as cell-based. The note with it: for DC50: 4 hours post compound addition, ERα in cell western, read-out: Degradation IC50; for % Degradation at 3 μM: 4 hours, relative to fulvestrant. The essentials: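 MCF7 cells in phenol-red-free medium with 5% charcoal-stripped FBS received compound (9-point 1:5, 3-0.000018 μM) for 4 h, then were fixed. ERα immunostained (Alexa 488) and normalised to DNA (Syto-64), read as integrated fluorescence on an Acumen scanner.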

The target of experiment [3] is His6-ERα298-554 Y537S mutant (ERα ligand-binding domain) (Homo sapiens (Human), UniProt P03372, Y537S). The experiment can be described thus: Test A: biochemical antagonist activity, LanthaScreen TR-FRET ERα coactivator assay, Y537S mutant. The note with it: asterisk (*): protocol using 10 nM estradiol; read-out: Antagonism Y537S IC50. The essentials:
as §1

In experiment [4] the test system is MCF7 cells expressing mutant estrogen receptor Tyr 537 Ser. The experiment can be described thus: Test B: cell proliferation/viability assay (CellTiter-Glo) on MCF7 Tyr 537 Ser mutant. The experiment is classed as cell-based. As to conditions: Homo sapiens, MCF7 cells expressing ER Tyr 537 Ser mutant, 7 days of compound exposure, read-out: proliferation MCF7 Y537S IC50. The essentials: (§2)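 Mutant lines are MCF7 transfected with ER mutants and selected for estradiol-independent growth. Cells in phenol red-free MEM with 5% charcoal-stripped FBS received 9-point 1:5 dilutions (3-0.000001 μM) for 7 days; CellTiter-Glo luminescence, % viability relative to untreated after background subtraction.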
(Cellular ATP, detected with luciferase, serves as a proxy for viable cell number.)

Experiment [5] deals with MCF7 cells expressing mutant estrogen receptor Asp 538 Gly. As to the kind of experiment: Test B: cell proliferation/viability assay (CellTiter-Glo) on MCF7 Asp 538 Gly mutant. The note with it: Homo sapiens, MCF7 cells expressing ER Asp 538 Gly mutant, 7 days of compound exposure, read-out: proliferation MCF7 D538G IC50. It counts as cell-based. The essentials:
as §2

In experiment [6] the test system is MCF7 cells (breast tumor cells) WT. The experiment can be described thus: Test B: cell proliferation/viability assay (CellTiter-Glo) on MCF7 WT. It counts as cell-based. As to conditions: Homo sapiens, 7 days of compound exposure. The essentials: as §2

Sequence of ERα in MCF7 cells (P03372 whole entry): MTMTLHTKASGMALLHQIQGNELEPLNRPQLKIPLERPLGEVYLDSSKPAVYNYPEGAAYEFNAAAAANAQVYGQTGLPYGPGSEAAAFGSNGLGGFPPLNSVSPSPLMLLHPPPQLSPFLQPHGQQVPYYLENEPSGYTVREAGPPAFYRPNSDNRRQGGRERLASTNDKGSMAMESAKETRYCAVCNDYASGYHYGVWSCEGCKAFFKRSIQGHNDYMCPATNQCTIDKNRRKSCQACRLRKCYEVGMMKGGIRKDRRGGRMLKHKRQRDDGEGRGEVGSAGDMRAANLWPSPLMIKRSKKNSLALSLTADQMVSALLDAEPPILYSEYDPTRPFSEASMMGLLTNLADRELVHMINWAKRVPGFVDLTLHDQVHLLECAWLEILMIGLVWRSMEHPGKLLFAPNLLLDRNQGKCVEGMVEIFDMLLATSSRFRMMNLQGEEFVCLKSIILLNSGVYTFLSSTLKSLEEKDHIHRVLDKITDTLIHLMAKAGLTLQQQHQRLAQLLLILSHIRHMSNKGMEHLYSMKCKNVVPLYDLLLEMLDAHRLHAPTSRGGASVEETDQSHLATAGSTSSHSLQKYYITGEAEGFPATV
Sequence of His6-ERα298-554 D538G mutant (ERα ligand-binding domain) (P03372 298-554 D538G): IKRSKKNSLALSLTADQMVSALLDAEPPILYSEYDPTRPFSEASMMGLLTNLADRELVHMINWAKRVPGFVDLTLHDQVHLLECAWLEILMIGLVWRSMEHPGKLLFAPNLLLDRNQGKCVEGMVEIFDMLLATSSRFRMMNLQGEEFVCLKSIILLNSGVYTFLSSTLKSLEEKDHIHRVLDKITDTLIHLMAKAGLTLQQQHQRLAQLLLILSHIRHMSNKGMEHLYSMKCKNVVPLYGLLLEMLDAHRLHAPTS
Sequence of His6-ERα298-554 Y537S mutant (ERα ligand-binding domain) (P03372 298-554 Y537S): as the sequence (P03372 298-554 D538G) above, with Y240S, G241D counted along it
Sequence of His6-ERα298-554 WT (ERα ligand-binding domain) (P03372 298-554): as the sequence (P03372 298-554 D538G) above, with G241D counted along it

On to `Cc1ccc(C2=C(c3ccc(O[C@H]4CCN(CCCF)C4)cc3)c3ccc(OP(=O)(O)O)cc3SC2)c(F)c1` [Example 48, [3-(2-fluoro-4-methyl-phenyl)-4-[4-[(3S)-1-(3-fluoropropyl)pyrrolidin-3-yl]oxyphenyl]-2H-thiochromen-7-yl]dihydrogen phosphate], for which the IC50 is over 4000 nM in experiment [1]; over 4000 nM in experiment [2]; over 4000 nM in experiment [3]; 17 nM in experiment [4] (168 h); 6 nM in experiment [5] (168 h); 1 nM in experiment [6] (168 h). In addition, the DC50 at ERα in MCF7 cells turned out to be 0.8 nM. The “% Degradation at 3 μM” value on ERα in MCF7 cells stood at 89%.

Take `Oc1ccc2c(c1)SCC(c1ccc(F)nc1F)=C2c1ccc(O[C@H]2CCN(CCCF)C2)cc1` [Example 49, 3-(2,6-difluoro-3-pyridyl)-4-[4-[(3S)-1-(3-fluoropropyl)pyrrolidin-3-yl]oxyphenyl]-2H-thiochromen-7-ol]: the IC50 was determined as 888 nM in experiment [1]; 37 nM in experiment [2]; 472 nM in experiment [3]; 3 nM in experiment [4] (MCF7, 168 h); 0.9 nM in experiment [5] (MCF7, 168 h); 0.3 nM in experiment [6] (MCF7, 168 h). The DC50 at ERα in MCF7 cells stood at 0.2 nM. Also, the “% Degradation at 3 μM” value on ERα in MCF7 cells amounted to 89%.

As for `Oc1ccc2c(c1)SCC(c1ccc(Cl)nc1Cl)=C2c1ccc(O[C@H]2CCN(CCCF)C2)cc1` [Example 50, 3-(2,6-dichloro-3-pyridyl)-4-[4-[(3S)-1-(3-fluoropropyl)pyrrolidin-3-yl]oxyphenyl]-2H-thiochromen-7-ol], the IC50 was 1550 nM in experiment [1]; 72 nM in experiment [2]; 1170 nM in experiment [3]; 7 nM in experiment [4] (MCF7, 168 h); 2 nM in experiment [5] (MCF7, 168 h); 0.6 nM in experiment [6] (MCF7, 168 h). For the same compound, the DC50 on ERα in MCF7 cells worked out at 0.2 nM. The “% Degradation at 3 μM” value on ERα in MCF7 cells was 84%.

Regarding `O=C1Cc2cc(C3=C(c4ccc(O[C@H]5CCN(CCCF)C5)cc4)c4ccc(O)cc4SC3)ccc2N1` [Example 51, 5-[4-[4-[(3S)-1-(3-fluoropropyl)pyrrolidin-3-yl]oxyphenyl]-7-hydroxy-2H-thiochromen-3-yl]indolin-2-one], the IC50 is over 4000 nM in experiment [1]; 350 nM in experiment [2]; 3600 nM in experiment [3]; 230 nM in experiment [4] (MCF7, 168 h); 148 nM in experiment [5] (MCF7, 168 h); 91 nM in experiment [6] (MCF7, 168 h). Further, the DC50 on ERα in MCF7 cells stood at 12 nM. Further, the “% Degradation at 3 μM” value on ERα in MCF7 cells amounted to 85%.

`CC(C)(C)c1ccc(C2=C(c3ccc(O[C@H]4CCN(CCCF)C4)cc3)c3ccc(O)cc3SC2)cc1` [Example 52, 3-(4-tert-butylphenyl)-4-[4-[(3S)-1-(3-fluoropropyl)pyrrolidin-3-yl]oxyphenyl]-2H-thiochromen-7-ol]: the IC50 in experiment [1] is over 4000 nM; in experiment [2] it was 351 nM; in experiment [3], 2910 nM; in experiment [4] (MCF7, 168 h) it was 41 nM; in experiment [5] (MCF7, 168 h), 3 nM; in experiment [6] (MCF7, 168 h), 2 nM. Also, the DC50 on ERα in MCF7 cells was 1 nM. Also, the “% Degradation at 3 μM” value at ERα in MCF7 cells was determined as 84%.

Take `CCOc1nccc(C2=C(c3ccc(O[C@H]4CCN(CCCF)C4)cc3)c3ccc(O)cc3SC2)c1Cl` [Example 53, 3-(3-chloro-2-ethoxy-4-pyridyl)-4-[4-[(3S)-1-(3-fluoropropyl)pyrrolidin-3-yl]oxyphenyl]-2H-thiochromen-7-ol]: the IC50 in experiment [1] turned out to be 36 nM; in experiment [2], 2 nM; in experiment [3], 25 nM; in experiment [4] (MCF7, 168 h), 5 nM; in experiment [5] (MCF7, 168 h), 0.2 nM; in experiment [6] (MCF7, 168 h), 0.2 nM. Also, the DC50 at ERα in MCF7 cells was 0.2 nM. Besides, at ERα in MCF7 cells, the “% Degradation at 3 μM” value was found to be 84%.

For the compound `Oc1ccc2c(c1)SCC(c1ccc(OC(F)(F)F)cc1)=C2c1ccc(O[C@H]2CCN(CCCF)C2)cc1` [Example 54, 4-[4-[(3S)-1-(3-fluoropropyl)pyrrolidin-3-yl]oxyphenyl]-3-[4-(trifluoromethoxy)phenyl]-2H-thiochromen-7-ol], the IC50 in experiment [1] amounted to 3030 nM; in experiment [2] it was 246 nM; in experiment [3] it was 2640 nM; in experiment [4] (MCF7, 168 h) it was 21 nM; in experiment [5] (MCF7, 168 h) it was 3 nM; in experiment [6] (MCF7, 168 h), 3 nM. The DC50 on ERα in MCF7 cells stood at 1 nM. On ERα in MCF7 cells, the “% Degradation at 3 μM” value was 74%.

Consider `Oc1ccc2c(c1)SCC(c1ccc(Cl)nc1F)=C2c1ccc(O[C@H]2CCN(CCCF)C2)cc1` [Example 55, 3-(6-chloro-2-fluoro-3-pyridyl)-4-[4-[(3S)-1-(3-fluoropropyl)pyrrolidin-3-yl]oxyphenyl]-2H-thiochromen-7-ol], for which the IC50 is 971 nM in experiment [1]; 48 nM in experiment [2]; 444 nM in experiment [3]; 5 nM in experiment [4] (MCF7, 168 h); 0.3 nM in experiment [5] (MCF7, 168 h); 0.7 nM in experiment [6] (MCF7, 168 h). For the same compound, the DC50 at ERα in MCF7 cells worked out at 0.2 nM. The “% Degradation at 3 μM” value on ERα in MCF7 cells is recorded as 88%.

Consider `Cc1ccc(C2=C(c3ccc(O[C@H]4CCN(CCCF)C4)cc3)c3ccc(O)cc3SC2)c(Cl)n1` [Example 56, 3-(2-chloro-6-methyl-3-pyridyl)-4-[4-[(3S)-1-(3-fluoropropyl)pyrrolidin-3-yl]oxyphenyl]-2H-thiochromen-7-ol], for which the IC50 in experiment [1] is 721 nM; in experiment [2], 37 nM; in experiment [3], 358 nM; in experiment [4] (MCF7, 168 h), 14 nM; in experiment [5] (MCF7, 168 h), 0.7 nM; in experiment [6] (MCF7, 168 h), 0.6 nM. Further, at ERα in MCF7 cells, the DC50 came to 0.2 nM. Also, the “% Degradation at 3 μM” value at ERα in MCF7 cells is reported as 86%.

In the case of `Cc1ccc(C2=C(c3ccc(O[C@H]4CCN(CCCF)C4)cc3)c3ccc(O)cc3[S+]([O-])C2)c(F)c1` (stereo partly drawn) [Example 57, 3-(2-fluoro-4-methyl-phenyl)-4-[4-[(3S)-1-(3-fluoropropyl)pyrrolidin-3-yl]oxyphenyl]-1-oxo-2H-thiochromen-7-ol], the IC50 is over 4000 nM in experiment [1]; 1070 nM in experiment [2]; over 4000 nM in experiment [3]; over 999 nM in experiment [4] (MCF7, 168 h); over 999 nM in experiment [5] (MCF7, 168 h); 33 nM in experiment [6] (MCF7, 168 h). For the same compound, the DC50 at ERα in MCF7 cells worked out at 3 nM. Also, at ERα in MCF7 cells, the “% Degradation at 3 μM” value stood at 89%.

Consider `CC(C)(C)OC(=O)N1CCOc2ccc(C3=C(c4ccc(O[C@H]5CCN(CCCF)C5)cc4)c4ccc(O)cc4SC3)cc21` [Example 59, tert-butyl 6-[4-[4-[(3S)-1-(3-fluoropropyl)pyrrolidin-3-yl]oxyphenyl]-7-hydroxy-2H-thiochromen-3-yl]-2,3-dihydro-1,4-benzoxazine-4-carboxylate], for which the IC50 in experiment [1] is over 4000 nM; in experiment [2], 879 nM; in experiment [3], over 4000 nM; in experiment [4] (MCF7, 168 h), over 999 nM; in experiment [5] (MCF7, 168 h) it was over 999 nM; in experiment [6] (MCF7, 168 h) it was 27 nM. The DC50 on ERα in MCF7 cells was found to be 0.9 nM. Further, the “% Degradation at 3 μM” value at ERα in MCF7 cells is on record as 81%.

With `Oc1ccc2c(c1)SCC(c1ccc(OCF)cc1)=C2c1ccc(O[C@H]2CCN(CCCF)C2)cc1` [Example 60, 3-[4-(fluoromethoxy)phenyl]-4-[4-[(3S)-1-(3-fluoropropyl)pyrrolidin-3-yl]oxyphenyl]-2H-thiochromen-7-ol], the IC50 in experiment [1] was found to be 215 nM; in experiment [2] it was 9 nM; in experiment [3], 103 nM; in experiment [4] (MCF7, 168 h), 3 nM; in experiment [5] (MCF7, 168 h) it was 0.4 nM; in experiment [6] (MCF7, 168 h) it was 0.5 nM. Moreover, the DC50 at ERα in MCF7 cells is 0.2 nM. For the same compound, the “% Degradation at 3 μM” value on ERα in MCF7 cells turned out to be 73%.
